Data: ChEMBL document CHEMBL1141278, “Naamidines H and I, cytotoxic imidazole alkaloids from the Indonesian marine sponge Leucetta chagosensis” (J Nat Prod, 2007)
≈ marks a conversion by molar mass, not a printed value. Calls of active or inactive are those of the source. No cut-off for these calls is given here.

Key:
HeLa = experiment: Cytotoxicity against human HeLa cells by MTT assay; type: functional, cell-based
Escherichia coli = experiment: Antimicrobial activity against Escherichia coli at 50 ug/6 mm disk by paper disk method; type: functional, organism-based

Structure (SMILES)	IC50 (HeLa)	Activity (Escherichia coli)
C/N=C1N=C(/N=c2\[nH]c(Cc3ccc(OC)cc3)c(Cc3cc(OC)c(O)c(OC)c3)n2C)C(=O)N\1C [NAAMIDINE I]	15 µg/mL (≈ 29.6 µM)	inactive
COc1ccc(Cc2[nH]/c(=N\C3=NC(=O)N(C)C3=O)n(C)c2Cc2cc(OC)c(O)c(OC)c2)cc1 [NAAMIDINE H]	5.6 µg/mL (≈ 11.3 µM)	inactive
